This note sets out measurements from patent publication US11744273B2, “Sweetness enhancing volatile compositions and methods of increasing perceived sweetness of a comestible” (University of Florida Research Foundation, Inc., priority 2016, dated 2023).

Molecules are shown by their SMILES.

What all share (format): in vivo, human
The test system of assay [1] is perceived sweetness intensity. Nature of the assay: Strawberry consumer panel; initial multiple regression of volatiles against perceived sweetness intensity independent of glucose, fructose or sucrose (Table 5). Particulars: standard least squares; for FRUCTOSE t RATIO: sweetness intensity independent of fructose; for GLUCOSE t RATIO: sweetness intensity independent of glucose; for SUCROSE t RATIO: sweetness intensity independent of sucrose. Here is the method: Step-wise multiple regressions of all volatile compounds against perceived intensity of sweetness is performed independent of either glucose, fructose, or sucrose concentration, separately (Table 5).
At least 100 grams or seven berries of each sample were removed from 4° C. dark overnight storage prior to volatile collection. Samples were homogenized in a blender prior to splitting into three 15 gram replicates for immediate capturing of volatile emission and remainder of sample frozen in N2 (I) and stored at −80° C. for later sugar and acid quantification.
Oven temperatures programmed from 40° C. (0.5 min hold) at 5° C. min^−1 to 250° C. (4 min hold). Signals captured with a flame ionization detector (FID) at 280° C. Peaks from FID signal were integrated manually with Chemstation B.04.01 software (Agilent Technologies, Santa Clara, Calif.). Volatile emission (ng gFW^−1 h^−1) calculated based on individual peak area relative to sample elution standard peak area.
All consumer panels were approved by the University of Florida Institutional Review Board. […] Ages of panelist ranged from 18 to 71, with a median age of 24. Panelists self-classified themselves as 98 White or Caucasian, 11 Black or African-American, 1 Native American, Alaska Native or Aleutian, 41 Asian/Pacific Islander, and 15 Other. […] Fresh, fully-ripe strawberry fruit was removed from overnight 4° C. dark storage and allowed to warm to room temperature prior to sensory analysis. Each panelist was given one to two whole strawberries for evaluation, depending on cultivar availability. Panelist took a bite of each sample, chewed, and swallowed it. Ratings for overall liking and liking for texture were scaled on hedonic general labeled magnitude scale (gLMS) in the context of all pleasure/displeasure experiences. […] Scales were employed to mediate valid comparisons across subjects and sessions.
For the first analysis, individual volatile compound concentrations were regressed using the “enter” method in SPSS Statistics (IBM Corp, Armonk, N.Y., USA).

The test system of assay [2] is strawberry flavor intensity. In words: Strawberry consumer panel; correlation of volatiles with strawberry flavor intensity. Here is the method: Quantification of volatiles in an elution was performed on an Agilent 7890A Series gas chromatograph (GC) (carrier gas; He at 3.99 mL min^−1; splitless injector, temperature 220° C., injection volume 2 μl) equipped with a DB-5 column ((5%-Phenyl)-methylpolysiloxane, 30 m length×250 μm i.d.×1 μm film thickness; Agilent Technologies, Santa Clara, Calif., USA). Oven temperatures programmed from 40° C. (0.5 min hold) at 5° C. min^−1 to 250° C. (4 min hold). Signals captured with a flame ionization detector (FID) at 280° C. Peaks from FID signal were integrated manually with Chemstation B.04.01 software (Agilent Technologies, Santa Clara, Calif.). Volatile emission (ng gFW^−1 h^−1) calculated based on individual peak area relative to sample elution standard peak area. GC-Mass Spectrometry (MS) analysis of elution on an Agilent 6890N GC in tandem with an Agilent 5975 MS (Agilent Technologies, Santa Clara, Calif., USA) and retention time comparison with authentic standards (Sigma Aldrich, St Louis, Mo., USA) for volatile identification (Schmelz, 2001).
All consumer panels were approved by the University of Florida Institutional Review Board. Over the course of two annual seasons 166 strawberry consumers (58 male, 108 female) were recruited to evaluate strawberry cultivars. Ages of panelist ranged from 18 to 71, with a median age of 24. Panelists self-classified themselves as 98 White or Caucasian, 11 Black or African-American, 1 Native American, Alaska Native or Aleutian, 41 Asian/Pacific Islander, and 15 Other. An average of 106 (range of 98-113) panelists evaluated between three and five cultivars per session (Tieman, 2012). Fresh, fully-ripe strawberry fruit was removed from overnight 4° C. dark storage and allowed to warm to room temperature prior to sensory analysis. Each panelist was given one to two whole strawberries for evaluation, depending on cultivar availability. Panelist took a bite of each sample, chewed, and swallowed it. Ratings for overall liking and liking for texture were scaled on hedonic general labeled magnitude scale (gLMS) in the context of all pleasure/displeasure experiences. Perceived intensity of sweetness, sourness, and strawberry flavor were scaled in context of all sensory experiences using sensory gLMS (Bartoshuk, 2003; Bartoshuk, 2005; Tieman, 2012). Scales were employed to mediate valid comparisons across subjects and sessions.
Means and standard errors for consumer, physical, and metabolite measurements were determined from all replicates using JMP (Version 8. SAS Institute Inc., Cary, N.C., 1989-2008). Bivariate analysis among individual measurements of samples allowed for linear fit, which includes summary of fit, analysis of variance, t-test, and correlation analysis for density ellipse. […]

A further assay deals with sweetness. In words: Blueberry sensory panels; PLS analysis, sweetness (Table 7). Particulars: for PLS Coefficient: response Sweetness; for independent enhancement of perception of sweetness: multivariate regression analysis. As for the experimental part:
Sensory analysis was conducted similar to described above for tomatoes and strawberries in Examples 1 and 3. […] Panelists were trained with the scaling methods and were encouraged to return for the remainder of the study. Panelists rated overall liking, texture liking, sweetness, sourness, and flavor intensity using hedonic general Labeled Magnitude Scales (gLMS) (−100 to +100; −100=greatest disliking of any kind, +100=greatest liking of any kind) and intensity gLMS (0 to +100; 0=no sensation, 100=most intense sensation of any kind), which allow for improved comparison between panelists and between years (see Bartoshuk, L. M., et al., 2004 and Bartoshuk, L. M., et al., 2005). Panelists were also asked to rate the intensity of taste and flavor sensations of a hypothetical ideal blueberry on this scale. Each panelist received two to four berries of five to six genotypes in a single panel in a Williams design, which was generated by Compusense 5.6 (Compusense Inc., Guelph, Ontario, Canada). They were asked to eat the blueberries of each genotype at once, and to take a bite of cracker and sip of water in between samples. Ratings were recorded using Compusense software.
Soluble solids content (SSC), titratable acidity (TA), and volatiles were quantified as described above for tomato and strawberries. The volatiles were collected for two hours via dynamic headspace with HaySep Q 80-100 porous polymer adsorbent (Valco Instruments Company Inc., Houston, Tex.) and eluted with methylene chloride and nonyl acetate as an elution standard. Elutions were run on an Agilent 7890A Gas Chromatograph Flame Ionization Detector (GC-FID) DB-5 column (30 m length×[…]) for quantification and on an Agilent 7890A Gas Chromatograph coupled to an Agilent 5977A Mass Selective Detector (GC/MSD) for qualification (Agilent, Santa Clara, Calif.). Integrated peak area of each signal was normalized for elution, fitted to relative pure chemical response, corrected for sample mass, and expressed as nanograms per gram fresh weight per hour (ng gFW-1 h-1). Response fitting was calculated using the response factor of pure chemical standards (Sigma-Aldrich, St. Louis, Mo.) run on the same instrument.
Pair-wise correlations and significance between sensory measurements and primary bio-chemical components were calculated, with panelist as a random effect. Least Square Means (LSMeans) of the sensory data for each sample were obtained to account of the random effect of panelist. A partial least squares (PLS) analysis was constructed in JMP1 Pro 10 (SAS Institute Inc., Cary, N.C.) to reveal effectors of sensory ratings (see, e.g., Togari N., et al., 1995; Hough, G., et al., 1996; deKermadec, F., et al., 1997; Toscas, P. J., et al., 1999; and Tenenhaus, M., et al., 2005). The response variables (Y) considered corresponded to LSMeans of overall liking, sweetness, sourness, and blueberry flavor intensity. Glucose, fructose, sucrose, TA, pH, and 52 volatile compounds were considered as explanatory variables (X). The inclusion of texture liking was evaluated independently given that no explanatory physical measure was made for sample texture. […] The model was created without texture for analysis.
• Top six and bottom six biochemical measures explaining sensory responses as determined by partial least squares (PLS) analysis. […]

In the next assay the test system is overall liking. In words: Blueberry sensory panels; PLS analysis, overall liking (Table 7). To be noted: response Overall Liking. As for the experimental part:
(§1) Sensory analysis was conducted similar to described above for tomatoes and strawberries in Examples 1 and 3. […] Panelists were trained with the scaling methods and were encouraged to return for the remainder of the study. Panelists rated overall liking, texture liking, sweetness, sourness, and flavor intensity using hedonic general Labeled Magnitude Scales (gLMS) (−100 to +100; −100=greatest disliking of any kind, +100=greatest liking of any kind) and intensity gLMS (0 to +100; 0=no sensation, 100=most intense sensation of any kind), which allow for improved comparison between panelists and between years (see Bartoshuk, L. M., et al., 2004 and Bartoshuk, L. M., et al., 2005). […] Ratings were recorded using Compusense software.
(§2) Soluble solids content (SSC), titratable acidity (TA), and volatiles were quantified as described above for tomato and strawberries. […] Elutions were run on an Agilent 7890A Gas Chromatograph Flame Ionization Detector (GC-FID) DB-5 column (30 m length×[…]) for quantification and on an Agilent 7890A Gas Chromatograph coupled to an Agilent 5977A Mass Selective Detector (GC/MSD) for qualification (Agilent, Santa Clara, Calif.). Integrated peak area of each signal was normalized for elution, fitted to relative pure chemical response, corrected for sample mass, and expressed as nanograms per gram fresh weight per hour (ng gFW-1 h-1). […]

For a further assay, the system named is sourness. Nature of the assay: Blueberry sensory panels; PLS analysis, sourness (Table 7). To be noted: response Sourness. An excerpt:
Panelists were trained with the scaling methods and were encouraged to return for the remainder of the study. […] Panelists were also asked to rate the intensity of taste and flavor sensations of a hypothetical ideal blueberry on this scale. Each panelist received two to four berries of five to six genotypes in a single panel in a Williams design, which was generated by Compusense 5.6 (Compusense Inc., Guelph, Ontario, Canada). They were asked to eat the blueberries of each genotype at once, and to take a bite of cracker and sip of water in between samples. Ratings were recorded using Compusense software.
Soluble solids content (SSC), titratable acidity (TA), and volatiles were quantified as described above for tomato and strawberries. […] Integrated peak area of each signal was normalized for elution, fitted to relative pure chemical response, corrected for sample mass, and expressed as nanograms per gram fresh weight per hour (ng gFW-1 h-1). Response fitting was calculated using the response factor of pure chemical standards (Sigma-Aldrich, St. Louis, Mo.) run on the same instrument.
Pair-wise correlations and significance between sensory measurements and primary bio-chemical components were calculated, with panelist as a random effect. […] The inclusion of texture liking was evaluated independently given that no explanatory physical measure was made for sample texture. […]

Assay [3] relates to blueberry flavor intensity. Nature of the assay: Blueberry sensory panels; PLS analysis, blueberry flavor intensity (Table 7). Particulars: response Flavor. Here is the method: as §1, §2

`CCCC(=O)OCC` [105-54-4]: in assay [1], the “FRUCTOSE t RATIO” value was 2.533, the “GLUCOSE t RATIO” value was found to be 2.493 and the “SUCROSE t RATIO” value was determined as 0.034. The “correlation with flavor intensity” value in assay [2] is listed as “significant positive correlation with flavor intensity”.

In the case of `COC1=C(C)OC(C)C1=O` (stereo not shown) [4077-47-8], in assay [1], the “FRUCTOSE t RATIO” value is 2.414, the “GLUCOSE t RATIO” value worked out at 2.185 and the “SUCROSE t RATIO” value is 0.299. For the same compound, the “correlation with flavor intensity” value in assay [2] was “significant positive correlation with flavor intensity”.

With `C=CC(C)(O)CCC=C(C)C` (stereo not shown) [Linalool], the “correlation with flavor intensity” value in assay [2] is listed as “significant positive correlation with flavor intensity”.

With `CCCC(=O)OC` [623-42-7], in assay [1], the “FRUCTOSE t RATIO” value is reported as 1.455, the “GLUCOSE t RATIO” value was 1.452 and the “SUCROSE t RATIO” value is recorded as 0.419. The “correlation with flavor intensity” value in assay [2] was “significant positive correlation with flavor intensity”.

Take `CC12CCC(CC1)C(C)(C)O2` [1,8-Cineole]: the “PLS Coefficient” value in the assay with sweetness is −0.1925; in the assay on overall liking, −0.1912; in the assay on sourness, 0.1444; in assay [3], −0.0876.

`CC(C)=CCC/C(C)=C\C=O` [neral]: the “independent enhancement of perception of sweetness” value in the assay on sweetness is “independently enhancing perception of sweetness”.

On to `C=C1CC[C@H]2O[C@]2(C)CC[C@@H]2[C@@H]1CC2(C)C` [β-Caryophyllene oxide, β-caryophyllene oxide], for which, in the assay on sweetness, the “independent enhancement of perception of sweetness” value is “independently enhancing perception of sweetness”. Moreover, the “PLS Coefficient” value worked out at 0.1418 with sweetness, 0.1455 in the assay with overall liking and 0.1527 in assay [3].
